According to patent publication US10988523B2, “Modified lipidated Relaxin B chain peptides and their therapeutic use” (Sanofi, priority 2018, dated 2021):
*1 amine or outer side, *2 acyl side, *3 side chain or, on linkers, in order; H or OH if unused. Where a SMILES comes first, the peptide text is derived from it. Side-chain parts run from the residue outwards. [ ]: non-standard residue; d: D form. The star is where a group is joined. X15 = CCCCCCCCCCCCCCCCCC(=O)N[C@@H](CCC(=O)N[C@@H](CCC(=O)N[C@@H](CCC(=O)NCCCOCCOCCOCCCNC(=O)COCC(=O)NCCCOCCOCCOCCCNC(=O)COCC(=O)NCCCOCCOCCOCCCNC(=O)COCC(=O)*)C(=O)O)C(=O)O)C(=O)O; X9 = CCCCCCCCCCCCCCCCCC(=O)N[C@@H](CCC(=O)N[C@@H](CCC(=O)N[C@@H](CCC(=O)NCCCC[C@H](NC(=O)COCC(=O)NCCCOCCOCCOCCCN*)C(N)=O)C(=O)O)C(=O)O)C(=O)O; γGlu = O=C(O)[C@H](CCC(=O)[*:2])N[*:1]; Stearoyl = CCCCCCCCCCCCCCCCCC(=O)*; Palmitoyl = CCCCCCCCCCCCCCCC(=O)*; Nle = CCCC[C@H](N)C(=O)O; AEEA = NCCOCCOCC(=O)O; Aib = CC(C)(N)C(=O)O

Molecular target: T1, RXFP1 (Homo sapiens, UniProt Q9HBX9)
T1 construct: OVCAR5 cells expressing endogenous RXFP1; endogenous in cells; host or cells: OVCAR5 cells
T1 sequence (Q9HBX9 1-757): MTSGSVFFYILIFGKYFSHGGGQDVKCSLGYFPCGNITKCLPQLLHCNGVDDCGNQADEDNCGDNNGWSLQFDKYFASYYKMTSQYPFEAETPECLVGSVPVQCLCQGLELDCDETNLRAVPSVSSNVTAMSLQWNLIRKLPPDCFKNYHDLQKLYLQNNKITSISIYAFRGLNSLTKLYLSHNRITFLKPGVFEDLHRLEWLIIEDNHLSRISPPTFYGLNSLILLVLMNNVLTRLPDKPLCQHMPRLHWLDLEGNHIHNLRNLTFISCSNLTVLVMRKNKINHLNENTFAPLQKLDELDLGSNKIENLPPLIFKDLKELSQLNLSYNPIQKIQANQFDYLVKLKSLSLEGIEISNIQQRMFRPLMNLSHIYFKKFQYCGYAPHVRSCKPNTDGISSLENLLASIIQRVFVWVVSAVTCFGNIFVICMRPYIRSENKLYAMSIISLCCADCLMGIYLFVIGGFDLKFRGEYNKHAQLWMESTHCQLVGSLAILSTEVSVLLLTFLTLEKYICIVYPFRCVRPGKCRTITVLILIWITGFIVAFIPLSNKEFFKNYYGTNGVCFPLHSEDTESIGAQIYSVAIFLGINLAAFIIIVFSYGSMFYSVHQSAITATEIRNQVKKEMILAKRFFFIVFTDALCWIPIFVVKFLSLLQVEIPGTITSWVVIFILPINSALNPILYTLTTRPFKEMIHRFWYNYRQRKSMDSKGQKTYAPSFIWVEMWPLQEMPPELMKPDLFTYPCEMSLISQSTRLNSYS
Test: OVCAR5 cAMP assay (HTRF), RXFP1 agonist activity
Format: cell-based
Conditions: for Emax: OVCAR-5, maximal cAMP relative to H2-relaxin maximum (100%), read-out: EMax, OVCAR 5 cells (cAMP)
Text: OVCAR5 cells expressing endogenous RXFP1 were used to test RXP1 agonist properties of peptides of the invention, and in particular of the peptides of sequence SEQ ID NO: 1-193.
Since RXFP1 is a Gs coupled GPCR, cAMP was used as readout of RXFP1 activation.
Isobutyl Methyl Xanthine (IBMX) was used to inhibit phosphodiesterase activity facilitating cAMP measurements. HTRF (Homogenous Time Resolved Fluorescence) technology was used to detect cAMP due to its great sensitivity.
In summary, OVCAR5 were grown in regular medium (RPMI) containing 10% fetal calf serum (FCS) and 1% antibiotics (penicillin/streptomycin).
Before the experiments, cells were detached with accutase and incubated for 40 minutes at 37° C. with 1 mM (3-isobutyl-1-methylxanthine) IBMX.
Cells were then distributed in 384 black well plates containing increasing concentrations of the different peptides in a fix volume of medium (without FCS).
After an incubation of 30 min at 37° C. in an humid incubator in 5% CO2, the reaction was stopped by adding a fixed volume of a solution containing a lysis buffer and cAMP-D2 (cAMP labeled with the dye d2) and the anti cAMP antibody linked to Europium and used for cAMP detection.
Readout of the experiment were performed on a fluorimeter allowing HTRF measurement. Activation curves were generated by plotting the intracellular value of cAMP versus log 10 of the compound concentration.
The 50% activation concentration (EC50) was calculated by nonlinear regression using the sigmoidal dose-response (variable slope) equation with Prism 5 software.
Emax % is determined as the maximal intracellular value of cAMP for test compound (upper limit of cAMP vs concentration curve) divided by the maximal intracellular value of cAMP for H2-relaxin determined in the same test occasion multiplied by 100. Emax %=100×[cAMPtest cpd]/[cAMPH2-RlX]

Emax [%] | EC50 (OVCAR5 cells, cAMP HTRF, read-out: EC50 (nM), OVCAR 5 cells (cAMP)) [nM] | Structure (SMILES)
93 | – | CCCCCCCCCCCCCCCC(=O)N[C@@H](CCC(=O)N[C@@H](CCC(=O)N[C@@H](CCC(=O)N[C@@H](CCC(=O)NCCOCCOCC(=O)NCCOCCOCC(=O)NCCOCCOCC(=O)NCCOCCOCC(=O)NCCCC[C@H](NC(=O)[C@H](CCCCNC(C)=O)NC(=O)[C@H](CCCCN)NC(=O)[C@H](CCCNC(=N)N)NC(=O)C(C)(C)NC(=O)[C@H](CO)NC(=O)[C@H](Cc1c[nH]c2ccccc12)NC(=O)[C@@H](NC(=O)[C@H](CO)NC(=O)[C@H](CCCC)NC(=O)CNC(=O)[C@H](CCC(=O)O)NC(=O)C(C)(C)NC(=O)C(C)(C)NC(=O)[C@@H](NC(=O)[C@H](CCCCNC(C)=O)NC(=O)[C@H](C)NC(=O)[C@H](CCCNC(=N)N)NC(=O)[C@@H](NC(=O)[C@H](CCCCN)NC(=O)[C@H](CCC(=O)O)NC(=O)[C@H](CCCNC(=N)N)NC(=O)CNC(=O)[C@H](CCC(=O)O)NC(=O)[C@H](CC(C)C)NC(C)=O)C(C)C)[C@@H](C)CC)[C@@H](C)O)C(N)=O)C(=O)O)C(=O)O)C(=O)O)C(=O)O [compound 130] (Ac-LEGREKVRAK(Ac)I[Aib][Aib]EG[Nle]STWS[Aib]RKK(Ac)K([AEEA-AEEA-AEEA-AEEA-γGlu-γGlu-γGlu-γGlu-Palmitoyl])-NH2)
89 | – | CCCCCCCCCCCCCCCCCC(=O)N[C@@H](CCC(=O)N[C@@H](CCC(=O)N[C@@H](CCC(=O)NCCCOCCOCCOCCCNC(=O)COCC(=O)NCCCOCCOCCOCCCNC(=O)COCC(=O)NCCCOCCOCCOCCCNC(=O)COCC(=O)NCCCC[C@H](NC(=O)[C@H](CCCCNC(C)=O)NC(=O)[C@H](CCCCN)NC(=O)[C@H](CCCNC(=N)N)NC(=O)C(C)(C)NC(=O)[C@H](CO)NC(=O)[C@H](Cc1c[nH]c2ccccc12)NC(=O)[C@@H](NC(=O)[C@H](CO)NC(=O)[C@H](CCCC)NC(=O)CNC(=O)[C@H](CCC(=O)O)NC(=O)C(C)(C)NC(=O)C(C)(C)NC(=O)[C@@H](NC(=O)[C@H](CCCCNC(C)=O)NC(=O)[C@H](C)NC(=O)[C@H](CCCNC(=N)N)NC(=O)[C@@H](NC(=O)[C@H](CCCCN)NC(=O)[C@H](CCC(=O)O)NC(=O)[C@H](CCCNC(=N)N)NC(=O)CNC(=O)[C@H](CCC(=O)O)NC(=O)[C@H](CC(C)C)NC(C)=O)C(C)C)[C@@H](C)CC)[C@@H](C)O)C(N)=O)C(=O)O)C(=O)O)C(=O)O [compound 96] (Ac-LEGREKVRAK(Ac)I[Aib][Aib]EG[Nle]STWS[Aib]RKK(Ac)K(X15)-NH2)
99 | – | CCCCCCCCCCCCCCCCCC(=O)NCCOCCOCC(=O)N[C@@H](CCC(=O)N[C@@H](CCC(=O)N[C@@H](CCC(=O)NCCOCCOCC(=O)NCCOCCOCC(=O)NCCCC[C@H](NC(=O)[C@H](CCCCN)NC(=O)[C@H](CCCCN)NC(=O)[C@H](CCCNC(=N)N)NC(=O)C(C)(C)NC(=O)[C@H](CO)NC(=O)[C@H](Cc1c[nH]c2ccccc12)NC(=O)[C@@H](NC(=O)[C@H](CO)NC(=O)[C@H](CCCC)NC(=O)CNC(=O)[C@H](CCC(=O)O)NC(=O)C(C)(C)NC(=O)C(C)(C)NC(=O)[C@@H](NC(=O)[C@H](CCC(N)=O)NC(=O)[C@H](C)NC(=O)[C@H](CCCNC(=N)N)NC(=O)[C@@H](NC(=O)[C@H](CCCCN)NC(=O)[C@H](CCC(=O)O)NC(=O)[C@H](CCCNC(=N)N)NC(=O)CNC(=O)[C@H](CCC(=O)O)NC(=O)[C@H](CC(C)C)NC(C)=O)C(C)C)[C@@H](C)CC)[C@@H](C)O)C(N)=O)C(=O)O)C(=O)O)C(=O)O [compound 98] (Ac-LEGREKVRAQI[Aib][Aib]EG[Nle]STWS[Aib]RKKK([AEEA-AEEA-γGlu-γGlu-γGlu-AEEA-Stearoyl])-NH2)
83 | 0.41 | CCCCCCCCCCCCCCCCCC(=O)N[C@@H](CCC(=O)N[C@@H](CCC(=O)N[C@@H](CCC(=O)NCCCC[C@H](NC(=O)COCC(=O)NCCCOCCOCCOCCCNC(=O)[C@H](CCCCNC(C)=O)NC(=O)[C@H](CCCCN)NC(=O)[C@H](CCCNC(=N)N)NC(=O)C(C)(C)NC(=O)[C@H](CO)NC(=O)[C@H](Cc1c[nH]c2ccccc12)NC(=O)[C@@H](NC(=O)[C@H](CO)NC(=O)[C@H](CCCC)NC(=O)CNC(=O)[C@H](CCC(=O)O)NC(=O)C(C)(C)NC(=O)C(C)(C)NC(=O)[C@@H](NC(=O)[C@H](CCCCNC(C)=O)NC(=O)[C@H](C)NC(=O)[C@H](CCCNC(=N)N)NC(=O)[C@@H](NC(=O)[C@H](CCCCN)NC(=O)[C@H](CCC(=O)O)NC(=O)[C@H](CCCNC(=N)N)NC(=O)CNC(=O)[C@H](CCC(=O)O)NC(=O)[C@H](CC(C)C)NC(C)=O)C(C)C)[C@@H](C)CC)[C@@H](C)O)C(N)=O)C(=O)O)C(=O)O)C(=O)O [compound 18] (Ac-LEGREKVRAK(Ac)I[Aib][Aib]EG[Nle]STWS[Aib]RKK(Ac)-X9)
